Experiment: Particle size of valsartan by laser light scattering (Malvern Mastersizer MS 2000, suspension in vegetable oil)
Format: physicochemical
Details: for average particle size: Malvern Mastersizer MS 2000 software; for % of particles in the range of 0.02-50 μm: range 0.02-50 μm; for % of particles in the range of 0.02-100 μm: range 0.02-100 μm; for size that 50% of particles were larger than (D50): volume diameter
Source text: The term “particle size” as used herein refers to the volume diameter of valsartan particles, as determined by laser light scattering using a Malvern-Mastersizer Apparatus MS 2000. D50 means that 50% of particles (V/V) have a higher volume diameter than the indicated value. The term “valsartan particle” means a particle that contains valsartan or, preferably, a particle that essentially or completely consists of valsartan. The particles to be subjected to the particle size measurement are first suspended in vegetable oil (i.e. sunflower oil) and then subjected to a size determination in a Malvern Mastersizer MS 2000 instrument. Usually, 100-800 mg of substance are dispersed in 5-8 ml of vegetable oil. No solubilizers or surfactants are used. According to manufacturer's information, the Malvern Mastersizers allow for a measurement of particle size distributions in the range of 20 nm to 2000 μm, with a precision of better than 0.5%. Particle sizes are determined by measuring the angular distribution of laser light scattered by a homogeneous suspension of particles. The size distribution is determined from the light scattering data using the theory of light scattering developed by Gustav Mie. The following examples illustrate the invention and are not intended to restrict the scope of the invention in any way. In the following examples, the water content was determined as loss on drying on a Mettler Toledo HR73 halogen moisture analyzer. The particle size was determined in a Malvern Mastersizer MS 2000, using a suspension of valsartan in vegetable oil (sunflower oil of Oljarica Kranj).

Structure (SMILES): CCCCC(=O)N(Cc1ccc(-c2ccccc2-c2nnn[nH]2)cc1)[C@H](C(=O)O)C(C)C [valsartan (B), N-(1-oxopentyl)-N-{4-[2-(1H-tetrazole-5-yl)phenyl]-benzyl}-L-valine]
- size that 10% of particles were larger than: 460.8 μm
- size that 10% of particles were smaller than: 34.7 μm
- average particle size: 219 μm
- Particle size distribution, Volume % in range 0.01-2 μm: 0.7 Volume %
- % of particles in the range of 0.02-50 μm: 15.0%
- % of particles in the range of 0.02-100 μm: 30.0%
- Particle size distribution, Volume % in range 2-5 μm: 1.2 Volume %
- Particle size distribution, Volume % in range 5-10 μm: 1.0 Volume %
- Particle size distribution, Volume % in range 10-20 μm: 2.6 Volume %
- Particle size distribution, Volume % in range 20-50 μm: 9.5 Volume %
- Particle size distribution, Volume % in range 50-100 μm: 15.0 Volume %
- Particle size distribution, Volume % in range 100-150 μm: 13.1 Volume %
- Particle size distribution, Volume % in range 150-800 μm: 56.4 Volume %
- size that 50% of particles were larger than (D50): 179.1 μm

Structure (SMILES): CCCCC(=O)N(Cc1ccc(-c2ccccc2-c2nnn[nH]2)cc1)[C@H](C(=O)O)C(C)C [valsartan (C), N-(1-oxopentyl)-N-{4-[2-(1H-tetrazole-5-yl)phenyl]-benzyl}-L-valine]
- size that 10% of particles were larger than: 136.2 μm
- size that 10% of particles were smaller than: 8.2 μm
- average particle size: 65 μm
- Particle size distribution, Volume % in range 0.01-2 μm: 1.4 Volume %
- % of particles in the range of 0.02-56 μm (range 0.02-56 μm as printed): 47.2%
- % of particles in the range of 0.02-100 μm: 78.5%
- Particle size distribution, Volume % in range 2-5 μm: 4.8 Volume %
- Particle size distribution, Volume % in range 5-10 μm: 5.7 Volume %
- Particle size distribution, Volume % in range 10-20 μm: 9.4 Volume %
- Particle size distribution, Volume % in range 20-50 μm: 25.9 Volume %
- Particle size distribution, Volume % in range 50-100 μm: 31.3 Volume %
- Particle size distribution, Volume % in range 100-150 μm: 14.1 Volume %
- Particle size distribution, Volume % in range 150-800 μm: 7.3 Volume %
- size that 50% of particles were larger than (D50): 53.4 μm

Structure (SMILES): CCCCC(=O)N(Cc1ccc(-c2ccccc2-c2nnn[nH]2)cc1)[C@H](C(=O)O)C(C)C [valsartan (A), N-(1-oxopentyl)-N-{4-[2-(1H-tetrazole-5-yl)phenyl]-benzyl}-L-valine]
- size that 10% of particles were larger than: 304.3 μm
- size that 10% of particles were smaller than: 10.3 μm
- average particle size: 123 μm
- Particle size distribution, Volume % in range 0.01-2 μm: 0.9 Volume %
- % of particles in the range of 0.02-50 μm: 38.1%
- % of particles in the range of 0.02-100 μm: 58.1%
- Particle size distribution, Volume % in range 2-5 μm: 3.3 Volume %
- Particle size distribution, Volume % in range 5-10 μm: 5.5 Volume %
- Particle size distribution, Volume % in range 10-20 μm: 9.3 Volume %
- Particle size distribution, Volume % in range 20-50 μm: 19.1 Volume %
- Particle size distribution, Volume % in range 50-100 μm: 20.0 Volume %
- Particle size distribution, Volume % in range 100-150 μm: 12.4 Volume %
- Particle size distribution, Volume % in range 150-800 μm: 29.4 Volume %
- size that 50% of particles were larger than (D50): 76.6 μm
